Where two headings read alike, the source gives them in different places.
Key:
[1] = Hygroscopicity: open weighing bottles in a constant temperature and humidity incubator, moisture absorption rate; format: physicochemical; details: for hygroscopicity (in words): compared with the amorphous compound of structural formula (I); for Moisture absorption rates after 1 month / Moisture absorption rates after 2 months / Moisture absorption rates after 2 weeks: 25° C., 75% humidity
Description: The crystal form A products prepared in example 1, example 2 and example 3 were taken and placed in weighing bottles for precision weighing. The caps of the bottles were opened, the bottles were put on an upper part of a drier and placed in a constant temperature and humidity incubator with 25° C. and 75% humidity, three parts were subjected to parallel operation, and then taken and weighed in two weeks, one month and two months respectively, and the compound amorphous powder of structural formula (I) was used as comparative example 1. Moisture absorption rate=(weight after moisture absorption - weight before moisture absorption)/weight before moisture absorption×100%.

IPF model (bleomycin) = experiment: Animal drug effect in the bleomycin-induced IPF model, intragastric administration; format: in vivo, C57BL/6 mice; details: for overall effect on idiopathic pulmonary fibrosis: bleomycin mouse model, vs Pirfenidone and Nintedanib
Description: Trial mice were C57BL/6 mice, 35 mice in total, 7 mice in each group, including a saline group, a bleomycin group, a Nintedanib group (100 mpk), a Pirfenidone group (200 mpk) and a group (100 mpk) administrating the crystal form A of the compound of structural formula (I). On day 0, bleomycin (2U/kg) was injected using a trachea to establish an IPF model, 0-7 days were inflammation periods of mice, and 7-14 days were fibrosis lasting progressive periods of mice. Administration was conducted on the day 7, materials were taken on the day 14, the lung functions of mice were measured after mice were narcotized, then the left lungs were taken to make pathological sections, and the right lungs were used to measure hydroxyproline.

[2] = Absorption experiment (pharmacokinetics and bioavailability) in rats; format: in vivo; details: Sprague Dawley, plasma, rat; for bioavailability: oral, 150 mpk
Description: Trial rats were Sprague Dawley rats, 7 rats in total, 1 rat was used as blank control, and blank plasma was taken to be used. 3 rats were administrated via tail intravenous injection (30 mpk), and 3 rats were orally and intragastrically administrated (150 mpk). According to the set time schedule, blood was collected from orbital vein to put in a blood collection vessel containing heparin sodium, centrifuged for 10min at 4° C. and 3500rpm, the supernatant of plasma was taken and put into EP tube, and the content of the compound of structural formula (I) in blood was detected. Bioavailability was calculated according to the following formula: bioavailability F %=(AUCpo/AUCIV)×(dose IV/dose po)×100%; Time schedule was set, as shown in Table 2. AUCpo is an area under the drug concentration-time curve under administrating oral drug, AUCIV is an area under the drug concentration-time curve under intravenous injecting drug, dose IV is the dose of the injected drug, the dose po is the dose of the oral drug, Tmax (h) is the time to reach the blood peak, T1/2 (h) is the half-life of blood concentration, and Cmax (ng/mL) is the drug peak concentration of the drug-time curve.

[3] = 30 mg/kg, intravenous injection (30 mpk)
[4] = 150 mg/kg, oral administration (150 mpk)

Structure (SMILES): CN(C)C[C@@H]1C(=O)O[C@@H]2C[C@@]3(C)CC[C@@H](O)[C@]4(CO4)[C@@H]3C[C@H]12.O=C(O)CCC(=O)O
- hygroscopicity (in words) [1]: obviously reduced
- hygroscopicity (in words) ([1]; listed as crystal form A of the compound (I)): basically non-hygroscopic
- pathological sections (area of pulmonary fibrosis focus, alveolar structure) (IPF model (bleomycin); 100 mpk, administration from day 7, left lung taken on day 14): can obviously reduce the area of pulmonary fibrosis focus and normalize the alveolar structure
- forced vital capacity (FVC) (IPF model (bleomycin); 100 mpk, day 14): can significantly improve the FVC of mice
- pulmonary fibrosis area (fibrotic percentage) (IPF model (bleomycin); 100 mpk, day 14, vs Nintedanib (100 mpk) and Pirfenidone (200 mpk)): superior to the positive drugs
- expression of hydroxyproline (content of collagen in the lungs) (IPF model (bleomycin); 100 mpk, right lung, day 14): can significantly reduce the content of collagen in the lungs
- overall effect on idiopathic pulmonary fibrosis (IPF model (bleomycin)): can significantly alleviate idiopathic pulmonary fibrosis
- AUC [2, 3]: 40.6 µg·h/mL
- Cmax [2, 3]: 21300 ng/mL
- Tmax [2, 3]: 0.11 h
- half-life [2, 3]: 1.35 h
- AUC [2, 4]: 174 µg·h/mL
- Cmax [2, 4]: 56300 ng/mL
- Tmax [2, 4]: 0.67 h
- half-life [2, 4]: 1.91 h
- bioavailability ([2]; po 150 mpk vs iv 30 mpk, read-out: bioavailability): 85.8%

Structure (SMILES): CN(C)C[C@@H]1C(=O)O[C@@H]2C[C@@]3(C)CC[C@@H](O)[C@]4(CO4)[C@@H]3C[C@H]12.O=C(O)CCC(=O)O [Example 1]
- Moisture absorption rates after 1 month [1]: 2.7%
- Moisture absorption rates after 2 months [1]: 3.2%
- Moisture absorption rates after 2 weeks [1]: 1.4%
- overall effect on idiopathic pulmonary fibrosis (IPF model (bleomycin)): can significantly alleviate idiopathic pulmonary fibrosis
- bioavailability ([2]; crystal form A prepared by the methods in example 1 and example 3, read-out: bioavailabilities): > 85.5%

Structure (SMILES): CN(C)C[C@@H]1C(=O)O[C@@H]2C[C@@]3(C)CC[C@@H](O)[C@]4(CO4)[C@@H]3C[C@H]12.O=C(O)CCC(=O)O [Example 2]
- Moisture absorption rates after 1 month [1]: 3.8%
- Moisture absorption rates after 2 months [1]: 3.1%
- Moisture absorption rates after 2 weeks [1]: 1.9%

Structure (SMILES): CN(C)C[C@@H]1C(=O)O[C@@H]2C[C@@]3(C)CC[C@@H](O)[C@]4(CO4)[C@@H]3C[C@H]12.O=C(O)CCC(=O)O [Example 3]
- Moisture absorption rates after 1 month [1]: 2.2%
- Moisture absorption rates after 2 months [1]: 2.8%
- Moisture absorption rates after 2 weeks [1]: 1.6%
- overall effect on idiopathic pulmonary fibrosis (IPF model (bleomycin)): can significantly alleviate idiopathic pulmonary fibrosis

Structure (SMILES): CN(C)C[C@@H]1C(=O)O[C@@H]2C[C@@]3(C)CC[C@@H](O)[C@]4(CO4)[C@@H]3C[C@H]12.O=C(O)CCC(=O)O [compound 1]
- Moisture absorption rates after 1 month [1]: 12.7%
- Moisture absorption rates after 2 months [1]: 22.6%
- Moisture absorption rates after 2 weeks [1]: 8.1%

— patent US20210070723A1, “CRYSTAL FORM OF SESQUITERPENE DERIVATIVE, PREPARATION METHOD THEREFOR AND USE THEREOF” (Nankai University, priority 2017, published 2021)
